Earlier results as cited in patent publication US10456366B2, “Composition and methods for tissue regeneration” (Chiou Consulting, Inc., priority 2017, dated 2019).

Legend:
[1] = test system: rats; conditions: water containing 10% of PG, two years
[2] = test system: dogs; conditions: food containing 8% of PG, two years

## CC(O)CO (centres unmarked) [PG, propylene glycol]
[1]
  adverse effects on feeding: no adverse effects
[2]
  adverse effects on feeding: no adverse effects
